{"source": "patent US20100035251A1", "about": "“BioMarkers for the Progression of Alzheimer's Disease” (priority 2006, published 2010)", "molecular_target": "LRRK2 protein (SEQ ID NO:2) (Homo sapiens, UniProt Q5S007)", "sequence (Q5S007 whole entry R50H/L212S)": "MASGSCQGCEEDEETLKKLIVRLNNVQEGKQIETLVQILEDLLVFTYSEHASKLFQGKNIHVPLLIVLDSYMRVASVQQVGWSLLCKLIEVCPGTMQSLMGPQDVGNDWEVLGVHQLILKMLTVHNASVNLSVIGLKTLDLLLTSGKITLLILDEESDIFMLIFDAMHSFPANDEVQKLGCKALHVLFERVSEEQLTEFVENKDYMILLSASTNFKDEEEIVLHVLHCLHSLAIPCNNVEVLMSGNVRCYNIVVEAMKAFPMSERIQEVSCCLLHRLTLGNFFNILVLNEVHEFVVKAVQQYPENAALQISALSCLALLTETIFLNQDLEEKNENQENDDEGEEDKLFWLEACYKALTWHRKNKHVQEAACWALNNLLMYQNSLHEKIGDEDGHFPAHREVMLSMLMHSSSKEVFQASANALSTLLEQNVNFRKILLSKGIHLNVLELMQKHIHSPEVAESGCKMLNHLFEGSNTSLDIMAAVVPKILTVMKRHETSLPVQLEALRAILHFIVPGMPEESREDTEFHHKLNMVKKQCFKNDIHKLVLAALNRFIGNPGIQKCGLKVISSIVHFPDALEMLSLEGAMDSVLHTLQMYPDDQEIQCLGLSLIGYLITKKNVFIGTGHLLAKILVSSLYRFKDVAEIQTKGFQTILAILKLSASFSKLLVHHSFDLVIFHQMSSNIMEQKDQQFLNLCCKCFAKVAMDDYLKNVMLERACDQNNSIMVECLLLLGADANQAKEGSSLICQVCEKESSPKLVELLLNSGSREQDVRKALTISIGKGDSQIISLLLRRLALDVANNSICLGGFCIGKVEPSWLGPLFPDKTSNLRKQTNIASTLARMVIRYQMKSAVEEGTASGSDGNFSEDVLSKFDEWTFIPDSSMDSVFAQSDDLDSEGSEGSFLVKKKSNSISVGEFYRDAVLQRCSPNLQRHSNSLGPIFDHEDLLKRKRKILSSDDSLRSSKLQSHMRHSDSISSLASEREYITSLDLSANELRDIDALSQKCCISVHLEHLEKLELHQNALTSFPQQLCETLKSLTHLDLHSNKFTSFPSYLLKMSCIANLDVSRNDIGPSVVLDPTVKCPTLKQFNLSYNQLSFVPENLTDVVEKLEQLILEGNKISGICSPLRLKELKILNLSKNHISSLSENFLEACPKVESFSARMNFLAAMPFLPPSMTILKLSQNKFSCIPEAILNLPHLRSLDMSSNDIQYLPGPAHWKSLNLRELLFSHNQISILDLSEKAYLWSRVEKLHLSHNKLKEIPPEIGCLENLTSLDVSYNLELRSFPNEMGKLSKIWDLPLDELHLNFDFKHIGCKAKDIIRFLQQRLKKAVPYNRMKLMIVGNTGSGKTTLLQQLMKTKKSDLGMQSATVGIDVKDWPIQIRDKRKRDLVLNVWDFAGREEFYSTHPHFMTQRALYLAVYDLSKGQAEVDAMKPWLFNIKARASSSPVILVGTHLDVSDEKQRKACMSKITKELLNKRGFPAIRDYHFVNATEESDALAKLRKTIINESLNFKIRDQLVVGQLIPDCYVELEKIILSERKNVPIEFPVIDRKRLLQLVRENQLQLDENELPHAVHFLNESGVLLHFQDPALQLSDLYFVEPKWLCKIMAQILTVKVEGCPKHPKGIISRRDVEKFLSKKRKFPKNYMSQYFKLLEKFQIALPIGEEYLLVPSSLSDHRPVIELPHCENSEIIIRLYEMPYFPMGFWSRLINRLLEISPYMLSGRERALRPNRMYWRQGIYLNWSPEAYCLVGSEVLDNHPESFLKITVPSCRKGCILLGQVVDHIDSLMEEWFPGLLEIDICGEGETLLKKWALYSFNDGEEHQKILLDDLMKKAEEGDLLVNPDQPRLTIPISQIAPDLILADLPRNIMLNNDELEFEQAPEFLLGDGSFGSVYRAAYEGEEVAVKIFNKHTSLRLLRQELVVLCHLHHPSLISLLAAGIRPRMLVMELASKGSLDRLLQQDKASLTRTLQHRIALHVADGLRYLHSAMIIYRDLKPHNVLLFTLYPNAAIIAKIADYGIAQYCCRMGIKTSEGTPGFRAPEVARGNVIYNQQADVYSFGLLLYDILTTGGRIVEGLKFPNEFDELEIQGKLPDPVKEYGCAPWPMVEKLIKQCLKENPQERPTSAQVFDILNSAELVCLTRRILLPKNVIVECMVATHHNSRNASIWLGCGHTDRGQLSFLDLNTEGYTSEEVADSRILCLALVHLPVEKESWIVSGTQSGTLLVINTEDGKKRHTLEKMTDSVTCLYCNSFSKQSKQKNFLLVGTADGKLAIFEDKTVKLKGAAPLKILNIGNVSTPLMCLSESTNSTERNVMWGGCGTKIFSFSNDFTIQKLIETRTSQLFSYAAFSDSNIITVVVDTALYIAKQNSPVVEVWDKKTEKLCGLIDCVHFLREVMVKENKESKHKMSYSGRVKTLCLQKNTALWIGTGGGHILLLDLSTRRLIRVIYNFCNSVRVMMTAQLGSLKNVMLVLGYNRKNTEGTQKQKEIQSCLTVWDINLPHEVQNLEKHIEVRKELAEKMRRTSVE", "experiment": "Drug Pull-Down experiments", "type": "binding", "method": "The pharmacological properties of the LRRK2 modulating agents can be evaluated, for example, in Drug Pull-Down experiments. The above-mentioned heterocyclic compounds can show activity in Drug Pull-Down experiments at concentrations below 20 μM.", "data": [{"smiles": "Cc1[nH]c(/C=C2\\C(=O)Nc3ccccc32)c(C)c1CCC(=O)O", "note": "[Compound 12]", "values": [{"measurement": "IC50", "value": "~1", "unit": "µM"}]}]}
